{
  "source": "PubChem BioAssay AID602167",
  "about": "(The Scripps Research Institute Molecular Screening Center, 2012)",
  "note": "Calls of active or inactive are those of the source. How the calls were made is not given here.",
  "data": [
    {"target": "transactivating tegument protein VP16 (Human herpesvirus 1), as a GAL4-VP16 activation-domain luciferase reporter", "test": "GAL4-VP16 reporter repression curves – cell-based, luminescence, high throughput, SRC3 series, counter-screen for SRC3 inhibitor project, dose response (AID 602167)", "conditions": "VP16 transactivation luciferase reporter cells", "values": [
      {"compound": "CCc1nc(N)nc(N)c1-c1ccc(Cl)c([N+](=O)[O-])c1", "IC50": "> 35.8 µM (inactive)"},
      {"compound": "COc1ccc(/C=C2\\CC/C(=C\\c3ccc(OC)c(OC)c3)C2=O)cc1OC", "IC50": "inactive"},
      {"compound": "COc1ccc(-c2nsc3c(N4CCCCC4)ncnc23)cc1", "IC50": "inactive"},
      {"compound": "CCn1ccnc1CN(C)Cc1cn[nH]c1-c1ccc(OC)c(F)c1", "IC50": "7.96 µM"},
      {"compound": "Cc1cccc2sc(NNC(=O)c3ccc(S(=O)(=O)N4CC(C)CC(C)C4)cc3)nc12", "note": "(configuration not stated)", "IC50": "7.55 µM"},
      {"compound": "CCC(=O)N1CCN(c2ccnc3cc(Cl)ccc23)CC1", "IC50": "inactive"},
      {"compound": "Cc1ccc(C(=O)Nc2cnc3ccccc3c2)cc1", "IC50": "8.49 µM"},
      {"compound": "NNC(=O)c1cc2ccccc2cc1O", "IC50": "inactive"},
      {"compound": "COc1ccccc1N(C(=O)CCl)c1cn(C(C)=O)c2ccccc12", "IC50": "8.58 µM"},
      {"compound": "O=S(=O)(c1ccc(F)cc1)c1snnc1-c1ccccc1", "IC50": "inactive"},
      {"compound": "C/C(=N\\NC(=S)Nc1cc(S(=O)(=O)N2CCOCC2)ccc1Cl)c1ccccc1F", "IC50": "inactive"},
      {"compound": "COc1ccc(C(C(=O)NC2CCCCC2)N(C(=O)CCl)c2ccc(OC)cc2)cc1", "note": "(configuration not stated)", "IC50": "6.59 µM"},
      {"compound": "COc1ccc(OC)c(N/C=C/C(=O)c2ccccc2)c1", "IC50": "inactive"},
      {"compound": "Cc1cccc(CN2CCN(C(=O)CCl)CC2)c1", "IC50": "> 12 µM (inactive)"},
      {"compound": "Nc1nc(CCl)nc(Nc2cccc3ccccc23)n1", "IC50": "inactive"},
      {"compound": "C=C1C(=O)[C@]23C[C@H]1CCC2[C@@]1(C)C(C[C@@H]3O)[C@](C)(C(=O)OC)CC[C@@H]1O", "note": "(some centres not stated)", "IC50": "5.21 µM"},
      {"compound": "CCN(c1cccc(C)c1)c1ncnc2nc[nH]c12", "IC50": "inactive"},
      {"compound": "Cc1cc2nccc(-c3ccncc3)n2n1", "IC50": "inactive"},
      {"compound": "Cc1c(/C(O)=C2/C(=O)C(=O)N(Cc3cccnc3)C2c2ccccn2)cnn1-c1ccccc1", "note": "(configuration not stated)", "IC50": "> 35.9 µM (inactive)"},
      {"compound": "O=C(NCCc1ccccc1)c1ccc2c(c1)OCCO2", "IC50": "5.83 µM"},
      {"compound": "Cc1c(CC(=O)NCCCC(=O)O)c(=O)oc2cc3c(cc12)CCC(C)(C)O3", "IC50": "inactive"},
      {"compound": "O=C(CCl)N1N=C(c2ccco2)CC1c1ccco1", "note": "(configuration not stated)", "IC50": "> 12 µM (inactive)"},
      {"compound": "CO[C@@]12[C@@H]3N[C@@H]3CN1C1=C(C(=O)C(N)=C(C)C1=O)[C@@H]2COC(N)=O", "IC50": "> 35.8 µM (inactive)"},
      {"compound": "CCOC(=O)C(=CNc1ccc(NC2=NCC(C)S2)cc1)C(=O)OCC", "note": "(configuration not stated)", "IC50": "inactive"},
      {"compound": "CN1C(=O)C2(C(C#N)=C(N)N(c3cc(Cl)cc(Cl)c3)C3=C2C(=O)CC(C)(C)C3)c2ccccc21", "note": "(configuration not stated)", "IC50": "inactive"},
      {"compound": "S=C(Nc1ccccc1)Nc1ccc(OCc2ccc(Cl)cc2Cl)cc1", "IC50": "7.96 µM"},
      {"compound": "CN(C)c1ccc(C(=S)Nc2ccccc2)cc1", "IC50": "> 35.9 µM (inactive)"},
      {"compound": "Cc1ccc(C2=NN(C(=O)CCl)C(c3cccs3)C2)o1", "note": "(configuration not stated)", "IC50": "inactive"},
      {"compound": "Cc1nc(N)nc(N)c1-c1ccc(Cl)c(Cl)c1", "IC50": "> 11.9 µM (inactive)"},
      {"compound": "CC(=O)Nc1ccc(SCC(=O)c2cc(C)n(-c3ccccc3)c2C)cc1", "IC50": "> 35.9 µM (inactive)"},
      {"compound": "O=C(NC1CCCCC1)C(c1cccnc1)N(C(=O)CCl)c1cccc(Cl)c1", "note": "(configuration not stated)", "IC50": "6.03 µM"},
      {"compound": "COc1ccc(COC(=O)C2=C(C)NC(=O)NC2c2ccc(F)cc2)cc1", "note": "(configuration not stated)", "IC50": "9.08 µM"},
      {"compound": "CCOC(=O)CC(=O)CSc1nccc(-c2cccnc2)n1", "IC50": "inactive"},
      {"compound": "O=C(CCCc1nc(-c2ccccc2Cl)no1)NC1CCCC1", "IC50": "inactive"},
      {"compound": "Cc1ccc(/C=C2\\SC(=S)N(CCCC(=O)NC3CCCC3)C2=O)cc1", "IC50": "4.58 µM"},
      {"compound": "NC(=S)N/N=C1\\CCSc2ccc(Cl)cc21", "IC50": "inactive"},
      {"compound": "Cc1cc(/C=C2\\Cc3ccccc3C2=O)c(C)n1-c1ccccc1", "IC50": "inactive"},
      {"compound": "O=C(N/N=C\\c1ccc([N+](=O)[O-])s1)c1cncc(Br)c1", "IC50": "6.45 µM"},
      {"compound": "Oc1ccc(C=NNc2ccccn2)c(O)c1", "IC50": "inactive"},
      {"compound": "Cn1cnc([N+](=O)[O-])c1Sc1nc(N)nc2c1ncn2C1OC(CO)C(O)C1O", "note": "(configuration not stated)", "IC50": "7.47 µM"},
      {"compound": "CN(Cc1cnc2nc(N)nc(N)c2n1)c1ccc(C(=O)NC(CCC(=O)O)C(=O)O)cc1", "note": "(configuration not stated)", "IC50": "> 35.9 µM (inactive)"},
      {"compound": "O=C(OCCC12CC3CC(CC(C3)C1)C2)c1ccc(NCc2cc(O)ccc2O)cc1", "IC50": "5.45 µM"},
      {"compound": "COc1cc2c(ccc3cc(OC)c(OC)c(O)c32)cc1O", "IC50": "inactive"},
      {"compound": "COc1ccccc1C(=O)N(CCC1CCCN1C)c1nc2ccccc2s1", "note": "(configuration not stated)", "IC50": "7.9 µM"},
      {"compound": "CCOc1ccc(Nc2cc(C)nc(-n3nc(C)cc3C)n2)cc1", "IC50": "inactive"},
      {"compound": "COc1ccc(Nc2ccncc2[N+](=O)[O-])cc1", "IC50": "6.45 µM"},
      {"compound": "COc1ccc(/C=C2/SC(=S)N(CCC(=O)O)C2=O)cc1", "IC50": "> 35.9 µM (inactive)"},
      {"compound": "NS(=O)(=O)c1ccc(Sc2nc3ccccc3s2)c([N+](=O)[O-])c1", "IC50": "7.26 µM"},
      {"compound": "COc1ccc2[nH]c(=O)c(CN(CCN3CCCC3)C(=O)Nc3ccccc3Cl)cc2c1", "IC50": "inactive"},
      {"compound": "Cc1ccc2occ(/C=N/NC(=O)c3ccccc3Br)c(=O)c2c1", "IC50": "9.36 µM"},
      {"compound": "O=C(N/N=C/c1cc(Br)c(Br)s1)c1ccncc1", "IC50": "inactive"},
      {"compound": "COc1cccc(/C=N/Nc2cc(-n3nc(C)cc3-c3ccccc3)ncn2)c1O", "IC50": "6.45 µM"},
      {"compound": "CC1(C)N=C(N)N=C(N)N1CCCCc1ccccc1", "IC50": "5.25 µM"},
      {"compound": "CC(=O)Nc1ccc(SCC(=O)c2cc(C)n(-c3ccccc3F)c2C)cc1", "IC50": "> 12 µM (inactive)"},
      {"compound": "CC(=O)NC(c1cc(Cl)c2cccnc2c1O)C(C)C", "note": "(configuration not stated)", "IC50": "inactive"},
      {"compound": "CC(C)(C)c1ccc(-c2noc(CCC(=O)Nc3cccnc3)n2)cc1", "IC50": "inactive"},
      {"compound": "Cc1ccc2occ(/C=N/NC(=O)[C@@H](N)Cc3ccccc3)c(=O)c2c1", "IC50": "9.66 µM"},
      {"compound": "Cc1cccc(Oc2sc(C(=O)c3ccccc3)c(N)c2C#N)c1", "IC50": "inactive"},
      {"compound": "O=C(COc1ccc(Cl)cc1)Nc1ccc(C(=O)NCc2cccnc2)cc1", "IC50": "inactive"},
      {"compound": "CC(=O)OCCN1c2ccccc2Sc2cnccc21", "IC50": "6.3 µM"},
      {"compound": "Brc1ccc2ncc3ccccc3c2c1", "IC50": "inactive"},
      {"compound": "C(=Cc1cnc2ccccc2n1)c1ccc2c(c1)OCO2", "IC50": "inactive"},
      {"compound": "O=C(Nc1cccnc1)c1ccc(C(=O)Nc2cccnc2)cc1", "IC50": "> 35.9 µM (inactive)"},
      {"compound": "CCCC(=O)NC(c1ccc2c(c1)OCO2)c1cc(Cl)c2cccnc2c1O", "note": "(configuration not stated)", "IC50": "7.92 µM"},
      {"compound": "O=c1[nH]c2ccccc2n1C1CCN(C(c2cc3ccccc3o2)c2nnnn2Cc2ccccc2)CC1", "note": "(configuration not stated)", "IC50": "inactive"},
      {"compound": "COc1cc(C(=O)OCC(=O)Nc2sccc2C(N)=O)cc(OC)c1OC", "IC50": "> 35.9 µM (inactive)"},
      {"compound": "C=CCn1c(C)cc(C(=O)COc2ccc(C)nc2[N+](=O)[O-])c1C", "IC50": "inactive"},
      {"compound": "COC(=O)c1cc(S(=O)(=O)NCCc2ccc(Cl)cc2)c[nH]1", "IC50": "inactive"},
      {"compound": "c1ccc2c(c1)Nc1ccncc1S2", "IC50": "inactive"},
      {"compound": "CCCS(=O)(=O)Nc1ccc(Nc2c3ccccc3nc3ccccc23)c(OC)c1", "IC50": "> 35.9 µM (inactive)"},
      {"compound": "COc1cc(/C=C2\\CC(C(C)(C)C)C/C(=C\\c3cc(OC)c(OC)c(OC)c3)C2=O)cc(OC)c1OC", "note": "(configuration not stated)", "IC50": "4.47 µM"},
      {"compound": "CN(C)c1ccc(CNC(=O)CCNS(=O)(=O)c2cc(Br)cnc2N)cc1", "IC50": "8.6 µM"},
      {"compound": "COc1ccc(CCNC(=O)c2nnn(-c3ccc4c(c3)OCCO4)c2N)cc1OC", "IC50": "inactive"},
      {"compound": "CCOC(=O)c1cc2sccc2n1CC(=O)N1CCc2ccccc21", "IC50": "> 35.9 µM (inactive)"},
      {"compound": "COc1ccc(C)cc1NS(=O)(=O)c1ccc(NC(=O)CN(c2cc([N+](=O)[O-])ccc2C)S(C)(=O)=O)cc1", "IC50": "inactive"},
      {"compound": "Cc1nc2c(-c3ccc(Cl)cc3)cnn2c(N)c1-c1ccc(F)cc1", "IC50": "1.2 µM"},
      {"compound": "COc1cc(C2c3cc4c(cc3C(OC3OC5COC(c6cccs6)OC5C(O)C3O)C3COC(=O)C23)OCO4)cc(OC)c1O", "note": "(configuration not stated)", "IC50": "> 35.8 µM (inactive)"}
    ]}
  ]
}
